Measurements: patent US11951202B2, “Compounds and compositions for use” (DR WELLER LIMITED, priority 2016, dated 2024)

System: full thickness human skin homogenate
Test: In vitro NO generation by NO specific Clarke-type electrode, UVA-irradiated skin homogenate
Format: biochemical
Details: UVA radiation, nitrite source
Excerpt: Electrochemical sensors are widely used for the measurement of NO generation and Clark-type electrodes are most widely used as they are commercially available and easy to handle. The principle of these sensors is that NO diffuses through a gas-permeable membrane and a thin film of electrolyte, followed by oxidation on the working electrode. This oxidation creates a current that is proportional to the concentration of NO outside the membrane. The advantage of electrochemical NO sensors is the ability to directly detect NO concentration in solution or in biological samples with a low nanomolar detection limit. This makes NO electrodes an excellent tool for studying NO generation especially in biological samples.
We used the Clarke electrode technique to investigate the mechanism of UVA light dependent NO generation in skin and cosmetically acceptable components which could facilitate augment the endogenous process.
A 10% (g/mL) full thickness human skin homogenate in phosphate buffer was prepared using a glass/glass homogenizer. The homogenate was preheated at 56° C. for 1 hour to inactivate enzymatic generation of NO.
200 ul of homogenate was placed in a quartz cuvette in a thermostatically controlled environment and irradiated with broadband (320-400 nm) UVA radiation. Baseline signals were recorded. […]

Row | SMILES | sustained UV induced NO generation from nitrite
1 | N[C@@H](CSSC[C@H](N)C(=O)O)C(=O)O [Cystine] | able to participate in sustained NO generation
2 | O=C(O)CCCCC1CCSS1 (centres unmarked) [Lipoic acid (Oxidised), Lipoic acid] | able to participate in sustained NO generation
